Laboratory results as given in patent US8722030B2, “Composite vaccine adjuvant” (Institute of Medical Biology, Chinese Academy of Medical …, priority 2011, dated 2014).

How the values were obtained:
Settings in all cases: P<0.05
anti-HBs IgG [1] = test: Test 1: serum anti-HBs IgG level by ELISA after immunization with hepatitis B surface antigen plus adjuvant (composite adjuvant of embodiment 1)
Protocol: Both of the total volume of vaccines and the composite vaccine adjuvant for injection were 0.1 ml.
In the single sodium ferulate adjuvant group, sodium ferulate 10 mg and hepatitis B surface antigen 5 μg were mixed and dissolved into physiological saline 0.1 ml, and then were injected into mice subcutaneously.
(§1) In the adjuvant-free group, hepatitis B surface antigen 5 μg were mixed and dissolved into physiological saline 0.1 ml, and then were injected into mice subcutaneously.
(§2) In the blank group, each mouse was injected with physiological saline 0.1 ml.
(§3) Immunization schemes: three times immunization in total, subcutaneous injection of ICR mice in 0, 1, 6 month respectively.
(§4) B. ELISA Detection of Serum Anti-HBs IgG Level […]
(§5) The obtained experimental data were analyzed by single factor analysis of variance using SPSS11.5 statistics software, and P<0.05 having a statistically significance.

anti-HBs IgG [2] = test: Test 3: serum anti-HBs IgG level by ELISA after immunization with hepatitis B surface antigen plus adjuvant (composite adjuvant of embodiment 3)
Protocol: Both of the total volume of vaccines for injection and of the composite vaccine adjuvant were 0.1 ml.
In the single sodium ferulate adjuvant group, sodium ferulate 50 mg and hepatitis B surface antigen 5 μg were mixed and dissolved into physiological saline 0.1 ml, and then were injected into mice subcutaneously.
as §1, §2, §3
B. ELISA Detection of Serum Anti-HBs IgG Level
After 4, 8, 16, 24, 32 weeks of the initial immunization, collect vein blood of mouse tail, separate serum, and then use ELISA to detect the serum anti-HBs IgG level by method of protein microporous kit. […]
as §5

anti-HBs IgG [3] = test: Test 2: serum anti-HBs IgG level by ELISA after immunization with hepatitis B surface antigen plus adjuvant (composite adjuvant of embodiment 2)
Protocol: Both of the total volume of vaccine for injection and of the composite vaccine adjuvant were 0.1 ml.
In the single sodium ferulate adjuvant group, sodium ferulate 25 mg and hepatitis B surface antigen 5 μg were mixed and dissolved into physiological saline 0.1 ml, and then were injected into mice subcutaneously.
In the adjuvant-free group, hepatitis B surface antigen 5 μg were dissolved into physiological saline 0.1 ml, and then were injected into mice subcutaneously.
as §2, §3, §4, §5

Measured: antibody levels compared with the aluminum adjuvant control group

[OH-].[OH-].[Zn+2] [zinc hydroxide]
significantly higher: all assays above
